Laboratory results as given in paper PMC9157009, “Protein proximity networks and functional evaluation of the casein kinase 1 gamma family reveal unique roles for CK1γ3 in WNT signaling” (The Journal of Biological Chemistry, 2022).
“And” between values parts separate entries of the source, which are not always exact repeats. Equal entries are not always repeated.

Tests used:
CK1γ3 = target: T1, CK1γ3 (Homo sapiens, UniProt Q9Y6M4); experiment: Eurofins kinase enzymatic radiometric assay, CK1γ3; format: biochemical; conditions: Km = ATP, 9-pt curve in duplicate
T1 construct: purchased Eurofins
Text: Details related to the substrate used, protein constructs, controls, and assay protocol for each kinase assay are included on the Eurofins website: https://www.eurofinsdiscoveryservices.com/.

GSK3β = target: T2, GSK3β (Homo sapiens, UniProt P49841); experiment: scanMAX binding assay, GSK3β; conditions: Percent of Control; legend and method: 1 μM
T2 construct: purchased Eurofins DiscoverX Corporation
Text: (§1) As described previously, this commercial assay platform screens against 403 WT human kinases in binding assays and provides PoC values ([73]).

GSK3α = target: T3, GSK3α (Homo sapiens, UniProt P49840); experiment: scanMAX binding assay, GSK3α; conditions: Percent of Control; legend and method: 1 μM
T3 construct: purchased Eurofins DiscoverX Corporation
Text: as §1

CK1γ1 = target: T4, CK1γ1 (Homo sapiens, UniProt Q9HCP0); experiment: scanMAX binding assay, CK1γ1; conditions: Percent of Control; legend and method: 1 μM; read-out: CK1γ1 PoC @ 1 µM
T4 construct: purchased Eurofins
Text: as §1

DYRK1A = target: T5, DYRK1A (Homo sapiens, UniProt Q13627); experiment: scanMAX binding assay, DYRK1A; conditions: Percent of Control; legend and method: 1 μM; read-out: DYRK1A PoC @ 1mM
T5 construct: purchased Eurofins DiscoverX Corporation
Text: as §1

CSNK1E = target: T6, CSNK1E (Homo sapiens, UniProt P49674); experiment: scanMAX binding assay, CSNK1E; conditions: Percent of Control; legend and method: 1 μM; read-out: CSNK1E PoC @ 1 µM
T6 construct: purchased Eurofins DiscoverX Corporation
Text: as §1

IRAK1 = target: T7, IRAK1 (Homo sapiens, UniProt P51617); experiment: scanMAX binding assay, IRAK1; conditions: Percent of Control; legend and method: 1 μM; read-out: IRAK1 PoC @ 1 µM
T7 construct: purchased Eurofins DiscoverX Corporation
Text: as §1

ADCK3 = target: T8, ADCK3 (Homo sapiens, UniProt Q8NI60); experiment: scanMAX binding assay, ADCK3; conditions: Percent of Control; legend and method: 1 μM; read-out: ADCK3 PoC @ 1 µM
T8 construct: purchased Eurofins DiscoverX Corporation (scanMAX)
Text: as §1

TAK1 = target: T9, TAK1 (Homo sapiens, UniProt O43318); experiment: scanMAX binding assay, TAK1; conditions: Percent of Control; legend and method: 1 μM; read-out: TAK1 PoC @ 1 µM
T9 construct: purchased Eurofins DiscoverX Corporation (scanMAX)
Text: as §1

CLK2 = target: T10, CLK2 (Homo sapiens, UniProt P49760); experiment: scanMAX binding assay, CLK2; conditions: Percent of Control; legend and method: 1 μM; read-out: CLK2 PoC @ 1 µM
T10 construct: purchased Eurofins DiscoverX Corporation (scanMAX)
Text: as §1

CK1γ2 (NLuc-CK1γ2) = target: T11, CK1γ2 (NLuc-CK1γ2) (Homo sapiens, UniProt P78368); experiment: NanoBRET cellular target engagement assay, NLuc-CK1γ2 in HEK293T cells; format: cell-based; conditions: live HEK293T cells, 0.5 μM tracer K-10; read-out: NL-CK1γ2 NanoBRET IC50
T11 construct: host or cells: HEK293T
Protocol: (§2) HEK293T cells (hypotriploid, fetal) were purchased from ATCC. These cells were grown in Dulbecco’s modified Eagle’s medium (Gibco) supplemented with 10% (v/v) fetal bovine serum (Corning). They were incubated in 5% CO2 at 37 °C and passaged every 72 h with trypsin and not allowed to reach confluency. Constructs for NanoBRET measurements of CK1γ2 (NLuc-CK1γ2) and GSK3β (NLuc-GSK3β) were kindly provided by Promega. NanoBRET assays were carried out as described previously ([74]). Preferred NLuc orientations, both N-terminal in this case, are indicated in parentheses after each construct. Assays were carried out in dose–response as described by the manufacturer using 0.5 μM of tracer K-10 for CK1γ2 and 0.063 μM of tracer K-8 for GSK3β. Two biological replicates were executed with two technical replicates to produce the graphs with error bars shown in Figures 6E, 7E, 8, A and B. Tracer titration curves for these kinases that motivated our tracer selection and working concentration can be found on the Promega website.

GSK3β (NLuc-GSK3β) = target: T12, GSK3β (NLuc-GSK3β) (Homo sapiens, UniProt P49841); experiment: NanoBRET cellular target engagement assay, NLuc-GSK3β in HEK293T cells; format: cell-based; conditions: live HEK293T cells, 0.063 μM tracer K-8; read-out: GSK3β NanoBRET assay, inactive up to
T12 construct: host or cells: HEK293T
Protocol: as §2

β-catenin = experiment: W. blot of β-catenin stabilization after WNT3A in RKO cells; format: cell-based, human; conditions: RKO cells pretreated 1 h, WNT3A 30 or 60 min, compared with dimethyl sulfoxide control
Protocol: (§3) Standard W. blot techniques were utilized and performed as previously described ([15], [43]). Briefly, cells were lysed in RIPA lysis buffer, flash frozen on dry ice, and then cleared at high speed for 10 min at maximum speed. Protein concentration was determined by a bicinchoninic acid assay following kit specifications. Samples were balanced, and NuPAGE 4× SDS loading buffer (Thermo Fisher Scientific; catalog no.: NP0007) containing DTT was added to each sample and heated for 10 min at 70 °C. Samples were run on a NuPAGE 4 to 12% Bis–Tris Protein Gel (Thermo Fisher Scientific; catalog no.: NP0321) and then transferred to a nitrocellulose membrane. The membrane was then blocked and incubated overnight with primary antibody at 4 °C with rotation, washed with Tris-buffered saline with Tween-20, incubated with secondary antibody, washed with Tris-buffered saline with Tween-20, and imaged. Images were taken using a LiCOR Odyssey CLx imager and quantified with LiCOR software (LiCOR Biosciences). All antibodies were used at a concentration of 1:1000, with the exception of loading controls, which were used at 1:10,000. […]

LRP6 = experiment: W. blot of LRP6 phosphorylation after WNT3A in RKO cells; format: cell-based, human; conditions: RKO cells pretreated 1 h
Protocol: as §3

T1 sequence (Q9Y6M4 whole entry): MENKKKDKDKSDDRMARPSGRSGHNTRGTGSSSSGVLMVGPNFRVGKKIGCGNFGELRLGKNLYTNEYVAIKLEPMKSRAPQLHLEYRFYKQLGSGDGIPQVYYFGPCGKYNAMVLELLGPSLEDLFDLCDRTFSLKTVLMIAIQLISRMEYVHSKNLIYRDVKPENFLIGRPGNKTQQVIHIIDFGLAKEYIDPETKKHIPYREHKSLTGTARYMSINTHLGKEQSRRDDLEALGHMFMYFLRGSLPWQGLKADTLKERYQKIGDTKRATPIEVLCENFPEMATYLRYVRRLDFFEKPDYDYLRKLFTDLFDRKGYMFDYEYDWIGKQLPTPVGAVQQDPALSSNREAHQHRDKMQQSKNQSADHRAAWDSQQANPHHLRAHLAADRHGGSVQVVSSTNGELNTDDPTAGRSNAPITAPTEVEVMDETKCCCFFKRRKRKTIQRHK
T9 sequence (O43318 whole entry): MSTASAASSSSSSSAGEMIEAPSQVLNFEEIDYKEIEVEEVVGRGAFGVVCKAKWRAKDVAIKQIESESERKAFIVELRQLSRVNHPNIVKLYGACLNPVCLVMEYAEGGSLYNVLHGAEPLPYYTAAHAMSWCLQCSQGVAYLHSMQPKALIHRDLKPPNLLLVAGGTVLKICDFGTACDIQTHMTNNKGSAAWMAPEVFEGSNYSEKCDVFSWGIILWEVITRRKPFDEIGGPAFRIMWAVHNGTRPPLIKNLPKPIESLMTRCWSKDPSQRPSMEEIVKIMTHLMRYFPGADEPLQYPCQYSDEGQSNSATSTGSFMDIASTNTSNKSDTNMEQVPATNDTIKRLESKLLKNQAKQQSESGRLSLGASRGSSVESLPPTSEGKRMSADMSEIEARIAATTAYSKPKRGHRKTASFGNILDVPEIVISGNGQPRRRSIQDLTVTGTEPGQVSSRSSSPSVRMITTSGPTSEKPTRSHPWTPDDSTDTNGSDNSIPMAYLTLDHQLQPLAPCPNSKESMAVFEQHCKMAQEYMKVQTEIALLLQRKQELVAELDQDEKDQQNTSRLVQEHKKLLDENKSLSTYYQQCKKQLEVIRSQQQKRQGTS
T3 sequence (P49840 whole entry): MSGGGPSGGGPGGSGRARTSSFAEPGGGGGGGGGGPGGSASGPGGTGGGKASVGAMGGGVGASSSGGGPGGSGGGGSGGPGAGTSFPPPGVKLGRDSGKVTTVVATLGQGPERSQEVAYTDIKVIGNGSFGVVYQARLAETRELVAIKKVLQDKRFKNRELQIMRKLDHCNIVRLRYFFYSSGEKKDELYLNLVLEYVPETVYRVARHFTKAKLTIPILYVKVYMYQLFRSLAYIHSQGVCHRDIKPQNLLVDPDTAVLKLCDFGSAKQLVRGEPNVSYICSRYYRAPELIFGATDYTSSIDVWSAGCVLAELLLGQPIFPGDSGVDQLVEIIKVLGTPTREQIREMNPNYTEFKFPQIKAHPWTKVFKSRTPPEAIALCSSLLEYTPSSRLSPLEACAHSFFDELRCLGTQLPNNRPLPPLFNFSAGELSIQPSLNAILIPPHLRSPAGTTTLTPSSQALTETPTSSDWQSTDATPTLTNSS
T7 sequence (P51617 whole entry): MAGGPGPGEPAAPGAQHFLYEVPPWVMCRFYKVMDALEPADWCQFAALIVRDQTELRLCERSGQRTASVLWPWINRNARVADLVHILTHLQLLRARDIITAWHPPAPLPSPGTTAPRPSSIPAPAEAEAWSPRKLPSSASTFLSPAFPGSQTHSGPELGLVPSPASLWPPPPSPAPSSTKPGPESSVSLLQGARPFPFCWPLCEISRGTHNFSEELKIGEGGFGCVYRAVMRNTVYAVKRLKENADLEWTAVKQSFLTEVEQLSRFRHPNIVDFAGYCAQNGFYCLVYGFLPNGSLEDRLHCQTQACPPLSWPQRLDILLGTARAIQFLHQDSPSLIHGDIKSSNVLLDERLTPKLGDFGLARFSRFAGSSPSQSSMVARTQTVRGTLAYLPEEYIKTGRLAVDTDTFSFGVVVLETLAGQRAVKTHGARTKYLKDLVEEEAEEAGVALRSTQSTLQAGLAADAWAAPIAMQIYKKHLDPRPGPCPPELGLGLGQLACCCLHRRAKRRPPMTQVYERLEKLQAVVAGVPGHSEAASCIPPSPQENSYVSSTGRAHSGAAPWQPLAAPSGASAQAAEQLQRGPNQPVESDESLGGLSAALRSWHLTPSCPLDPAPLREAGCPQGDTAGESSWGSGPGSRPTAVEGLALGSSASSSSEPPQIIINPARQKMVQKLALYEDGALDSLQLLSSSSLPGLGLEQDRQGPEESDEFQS
T10 sequence (P49760 whole entry): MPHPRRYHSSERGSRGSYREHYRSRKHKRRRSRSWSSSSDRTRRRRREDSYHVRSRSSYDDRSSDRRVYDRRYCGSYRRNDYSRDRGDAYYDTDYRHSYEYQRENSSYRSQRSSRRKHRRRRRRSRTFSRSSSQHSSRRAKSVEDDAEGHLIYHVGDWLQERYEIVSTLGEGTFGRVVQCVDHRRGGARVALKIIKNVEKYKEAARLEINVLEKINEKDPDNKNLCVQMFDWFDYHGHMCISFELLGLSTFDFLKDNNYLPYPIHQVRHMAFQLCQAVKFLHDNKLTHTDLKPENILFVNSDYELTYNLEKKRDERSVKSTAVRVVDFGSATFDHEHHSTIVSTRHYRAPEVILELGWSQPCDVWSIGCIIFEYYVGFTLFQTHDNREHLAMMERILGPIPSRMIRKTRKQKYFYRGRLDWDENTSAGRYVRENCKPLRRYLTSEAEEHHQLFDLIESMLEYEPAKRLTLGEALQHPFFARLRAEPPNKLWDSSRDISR
T8 sequence (Q8NI60 163-647): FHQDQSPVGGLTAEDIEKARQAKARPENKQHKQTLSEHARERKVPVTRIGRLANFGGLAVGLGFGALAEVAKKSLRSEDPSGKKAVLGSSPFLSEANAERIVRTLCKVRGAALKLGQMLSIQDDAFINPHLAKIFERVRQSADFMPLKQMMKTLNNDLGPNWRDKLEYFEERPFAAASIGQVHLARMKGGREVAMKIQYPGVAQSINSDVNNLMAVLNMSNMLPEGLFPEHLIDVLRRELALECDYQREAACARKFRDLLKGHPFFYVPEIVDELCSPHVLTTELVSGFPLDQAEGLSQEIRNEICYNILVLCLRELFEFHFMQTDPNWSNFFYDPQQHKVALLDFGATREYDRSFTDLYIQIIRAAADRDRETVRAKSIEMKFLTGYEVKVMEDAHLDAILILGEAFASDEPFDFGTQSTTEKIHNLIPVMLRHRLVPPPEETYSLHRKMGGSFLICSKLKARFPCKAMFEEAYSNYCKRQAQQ
T12 sequence (P49841 whole entry): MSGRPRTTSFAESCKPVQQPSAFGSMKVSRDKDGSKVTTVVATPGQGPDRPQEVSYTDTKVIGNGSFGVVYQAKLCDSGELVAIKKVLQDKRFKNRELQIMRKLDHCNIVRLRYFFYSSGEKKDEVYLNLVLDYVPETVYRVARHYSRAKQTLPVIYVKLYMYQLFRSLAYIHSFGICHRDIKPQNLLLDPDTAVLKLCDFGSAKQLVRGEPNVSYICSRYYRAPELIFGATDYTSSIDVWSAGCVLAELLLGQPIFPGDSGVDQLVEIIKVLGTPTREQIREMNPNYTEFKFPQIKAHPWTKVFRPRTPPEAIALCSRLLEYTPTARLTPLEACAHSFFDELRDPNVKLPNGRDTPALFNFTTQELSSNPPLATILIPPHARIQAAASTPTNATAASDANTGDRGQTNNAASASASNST
T2 sequence (P49841 whole entry): as above
T4 sequence (Q9HCP0 whole entry): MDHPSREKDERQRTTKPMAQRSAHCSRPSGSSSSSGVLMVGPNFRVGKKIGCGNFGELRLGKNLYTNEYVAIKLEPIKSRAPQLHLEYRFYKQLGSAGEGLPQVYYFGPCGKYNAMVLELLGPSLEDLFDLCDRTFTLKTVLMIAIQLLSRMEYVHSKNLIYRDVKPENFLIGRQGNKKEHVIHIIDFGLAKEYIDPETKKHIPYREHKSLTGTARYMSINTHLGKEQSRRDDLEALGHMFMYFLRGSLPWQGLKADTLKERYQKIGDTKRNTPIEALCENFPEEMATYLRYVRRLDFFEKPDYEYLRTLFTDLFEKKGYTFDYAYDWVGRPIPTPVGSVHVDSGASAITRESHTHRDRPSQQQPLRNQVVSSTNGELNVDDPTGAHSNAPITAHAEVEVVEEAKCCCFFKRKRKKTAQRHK
T6 sequence (P49674 whole entry): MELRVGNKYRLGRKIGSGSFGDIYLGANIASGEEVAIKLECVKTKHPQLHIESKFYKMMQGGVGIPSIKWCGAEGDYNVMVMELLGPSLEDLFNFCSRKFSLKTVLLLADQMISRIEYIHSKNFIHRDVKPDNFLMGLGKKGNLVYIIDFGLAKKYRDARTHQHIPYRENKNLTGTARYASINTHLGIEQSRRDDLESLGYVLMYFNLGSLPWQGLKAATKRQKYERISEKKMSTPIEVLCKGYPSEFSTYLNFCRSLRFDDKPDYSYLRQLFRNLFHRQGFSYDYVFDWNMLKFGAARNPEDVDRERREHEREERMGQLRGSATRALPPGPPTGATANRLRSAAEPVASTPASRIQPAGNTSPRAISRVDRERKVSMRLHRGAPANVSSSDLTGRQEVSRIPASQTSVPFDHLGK
T11 sequence (P78368 whole entry): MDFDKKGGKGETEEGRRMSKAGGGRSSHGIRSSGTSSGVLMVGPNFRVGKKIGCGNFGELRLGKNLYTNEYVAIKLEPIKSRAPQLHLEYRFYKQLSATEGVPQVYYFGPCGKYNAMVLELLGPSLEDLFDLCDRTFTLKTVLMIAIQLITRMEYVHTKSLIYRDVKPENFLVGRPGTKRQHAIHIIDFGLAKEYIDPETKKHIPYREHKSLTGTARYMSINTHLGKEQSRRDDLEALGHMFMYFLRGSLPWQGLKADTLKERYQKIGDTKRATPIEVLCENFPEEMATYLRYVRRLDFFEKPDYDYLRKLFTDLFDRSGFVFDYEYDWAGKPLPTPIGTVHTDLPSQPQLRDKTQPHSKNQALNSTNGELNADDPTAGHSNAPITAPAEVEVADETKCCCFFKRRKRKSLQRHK

IC50 (CK1γ3): < 15 nM and 14 nM
GSK3β PoC @ 1 µM (GSK3β): did not inhibit
GSK3α PoC @ 1 µM (GSK3α): did not inhibit
remaining binding at 1 µM (CK1γ1): 8.5%
remaining binding at 1000 µM (DYRK1A): 0.1%
remaining binding at 1 µM (CSNK1E): 0.3%
remaining binding at 1 µM (IRAK1): 1.1%
remaining binding at 1 µM (ADCK3): 5.4%
remaining binding at 1 µM (TAK1): 6.9%
remaining binding at 1 µM (CLK2): 7.2%
IC50 (CK1γ2 (NLuc-CK1γ2)): 10.7 nM
IC50 (GSK3β (NLuc-GSK3β)): > 10000 nM
SMILES: COc1cnc(COc2ccc(F)c(F)c2)cc1-c1cc2c([nH]1)CCNC2=O [FP1-24-2, 2-(2-((3,4-difluorophenoxy)methyl)-5-methoxypyridin-4-yl)-1,5,6,7-tetrahydro-4H-pyrrolo[3,2-c]pyridin-4-one]
β-catenin stabilization (β-catenin): diminished
phosphorylation of LRP6 at site S1490 (LRP6; WNT3A 30 or 60 min, compared with dimethyl sulfoxide control): diminished
LRP6 phosphorylation at T1479 (LRP6; then exposed to WNT3A 30 or 60 min): did not increase
